biological target: T1, GST-YTHDC1 (345-509) protein (Homo sapiens, UniProt Q96MU7); assay: Fluorescence polarization-based in vitro enzyme-level test against YTHDC1; type: binding; conditions: 30 nM GST-YTHDC1 (345-509), FAM-labeled m6A-modified single-stranded oligonucleotide, 18° C., 4 hours; read-out: IC50 (Inhibitory Activity against YTHDC1)
T1 construct: GST-YTHDC1 (345-509) protein

SMILES | IC50
O=C(Nc1ccc(C(F)(F)F)cc1[N+](=O)[O-])c1cc(C(=O)c2ccccc2C(F)(F)F)c[nH]1 [Compound 112] | ≥ 50000 nM
COC1CN(c2ccccc2C(=O)c2c[nH]c(C(=O)Nc3ccc(-c4cnco4)cc3)c2)C1 [Compound 131] | 35 nM
COc1cnccc1-c1nccc2[nH]c(C(=O)Nc3ccc(-c4cncs4)cc3)cc12 [Compound 46] | > 50000 nM
O=C(Nc1ccc(-c2cnco2)cc1)c1cc(C(=O)c2ccccc2C(F)(F)F)c[nH]1 [Compound 28] | 10 nM
O=C(Nc1ccc(-c2cnc(N3CCOCC3)o2)cc1)c1cc(C(=O)c2ccccc2C(F)(F)F)c[nH]1 [Compound 77] | 67 nM
O=C(Nc1cccnc1)c1cc(C(=O)c2ccccc2F)c[nH]1 [Compound 7] | > 50000 nM
O=C(c1ccccc1)c1c[nH]c(C(=O)Nc2cccnc2)c1 [Compound 6] | > 50000 nM
O=C(Nc1ccc(C(=O)N2CCC3(CC2)OCc2ccccc23)cc1)c1cc(C(=O)c2ccccc2C(F)(F)F)c[nH]1 [Compound 120] | ≥ 50000 nM
Cc1ncsc1-c1ccc(NC(=O)c2cc(C(=O)c3ccccc3C(F)(F)F)c[nH]2)cc1 [Compound 33] | 12 nM
CCSc1ccccc1-c1nccc2[nH]c(C(=O)Nc3ccc(-c4cncs4)cc3)cc12 [Compound 68] | 1670 nM
O=C(Nc1ccc(-c2ocnc2CO)cc1)c1cc(C(=O)c2ccccc2C(F)(F)F)c[nH]1 [Compound 94] | 113 nM
O=C(Nc1ccc(-c2cnc(N3CCN(C4COC4)CC3)o2)cc1)c1cc(C(=O)c2ccccc2C(F)(F)F)c[nH]1 [Compound 88] | 71.2 nM
CCOC(=O)c1ccc(NC(=O)c2cc(C(=O)c3ccccc3C(F)(F)F)c[nH]2)cc1 [Compound 20] | 23 nM
O=C(Nc1ccc(-c2cnco2)cc1)c1cc(C(=O)c2ccccc2N2CCCCCCC2)c[nH]1 [Compound 141] | 189 nM
O=C(Nc1ccc(-c2cccnc2)cc1)c1cc(C(=O)c2ccccc2C(F)(F)F)c[nH]1 [Compound 23] | 47 nM
O=C(Nc1ccc(-c2cncnc2)cc1)c1cc(C(=O)c2ccccc2C(F)(F)F)c[nH]1 [Compound 102] | 86 nM
O=C(Nc1ccc(-c2cnco2)cc1)c1cc(C(=O)c2ccccc2N2CCC(F)C2)c[nH]1 (centres unmarked) [Compound 137] | 11 nM
C[C@@H]1CN(c2ccccc2C(=O)c2c[nH]c(C(=O)Nc3ccc(-c4cnco4)cc3)c2)C[C@H](C)O1 [Compound 147] | 190 nM
O=C(Nc1ccc(C(F)(F)F)c(F)c1)c1cc(C(=O)c2ccccc2C(F)(F)F)c[nH]1 [Compound 113] | 54 nM
O=C(Nc1ccc(-c2cnco2)cc1)c1cc(C(=O)c2ccccc2N2CCCC2)c[nH]1 [Compound 128] | 23 nM
O=C(Nc1ccc(-c2cnc(N3CC(F)C3)s2)cc1)c1cc(C(=O)c2ccccc2C(F)(F)F)c[nH]1 [Compound 34] | 22 nM
O=C(Nc1ccc(-c2cnco2)cc1)c1cc(C(=O)c2ccccc2N2CCCCC2)c[nH]1 [Compound 132] | 14 nM
CS(=O)(=O)c1ccc(NC(=O)c2cc(C(=O)c3ccccc3C(F)(F)F)c[nH]2)cc1 [Compound 100] | 162 nM
CN(C)c1cc(NC(=O)c2cc(C(=O)c3ccccc3C(F)(F)F)c[nH]2)ccc1-c1cnco1 [Compound 97] | 50.9 nM
O=C(c1ccc(C(F)(F)F)cc1)c1c[nH]c(C(=O)Nc2ccc(-c3cncs3)cc2)c1 [Compound 39] | > 50000 nM

SMILES | IC50
CC1(C)CN(c2ccccc2C(=O)c2c[nH]c(C(=O)Nc3ccc(-c4cnco4)cc3)c2)CCO1 [Compound 150] | 84 nM
O=C(Nc1ccc(-c2cncs2)cc1)c1cc2c(ncn2-c2ccccc2C(F)(F)F)[nH]1 [Compound 42] | 180 nM
O=C(Nc1ccc(-c2ccccn2)cc1)c1cc(C(=O)c2ccccc2C(F)(F)F)c[nH]1 [Compound 22] | 23 nM
CC(C)(C)NS(=O)(=O)c1ccccc1-c1nccc2[nH]c(C(=O)Nc3ccc(-c4cncs4)cc3)cc12 [Compound 57] | > 50000 nM
CCN(C)c1ccccc1C(=O)c1c[nH]c(C(=O)Nc2ccc(-c3cnco3)cc2)c1 [Compound 127] | 13 nM
O=C(Nc1ccc(-c2cnco2)cc1)c1cc(C(=O)c2ccccc2N2CCCCCC2)c[nH]1 [Compound 140] | 134 nM
CN(C)c1ncc(-c2ccc(NC(=O)c3cc4c(-c5ccccc5S(C)(=O)=O)nccc4[nH]3)cc2)o1 [Compound 71] | > 50000 nM
O=C(Nc1ccc(-c2cnc(N3CCOCC3)o2)cc1)c1cc(C(=O)c2ccccc2Br)c[nH]1 [Compound 78] | 123 nM
O=C(Nc1cccnc1)c1cc(C(=O)c2ccccc2C(F)(F)F)c[nH]1 [Compound 2] | 800 nM
O=C(Nc1ccc(-c2cncs2)cc1)c1cc2c(-c3ccccc3)nccc2[nH]1 [Compound 47] | > 50000 nM
O=C(Nc1ccc(-c2cncs2)cc1)c1cc2c(-c3ccccc3F)nccc2[nH]1 [Compound 53] | > 50000 nM
CS(=O)(=O)c1ccccc1-c1nccc2[nH]c(C(=O)Nc3ccc(-c4cncnc4)cc3)cc12 [Compound 74] | > 50000 nM
O=C(Nc1ccc2c(c1)OCC1CNCCN21)c1cc(C(=O)c2ccccc2C(F)(F)F)c[nH]1 (centres unmarked) [Compound 91] | 937 nM
O=C(Nc1ccc(Cc2ccccc2)cc1)c1cc(C(=O)c2ccccc2C(F)(F)F)c[nH]1 [Compound 119] | 14200 nM
O=C(Nc1ccc(-c2ccoc2)cc1)c1cc(C(=O)c2ccccc2C(F)(F)F)c[nH]1 [Compound 25] | 36 nM
CSc1ccccc1-c1nccc2[nH]c(C(=O)Nc3ccc(-c4cncs4)cc3)cc12 [Compound 65] | 11200 nM
O=C(Nc1ccc(-c2cnco2)cc1)c1cc(C(=O)c2ccccc2N2CC3CCC2CO3)c[nH]1 (centres unmarked) [Compound 134] | 99 nM
CN(C)CCOc1cc(NC(=O)c2cc(C(=O)c3ccccc3C(F)(F)F)c[nH]2)ccc1-c1cnco1 [Compound 98] | 15 nM
CCN1CCN(c2ccccc2C(=O)c2c[nH]c(C(=O)Nc3ccc(-c4cnco4)cc3)c2)CC1 [Compound 135] | 2820 nM
CS(=O)(=O)c1ccccc1-c1ncc(F)c2[nH]c(C(=O)Nc3ccc(-c4cncs4)cc3)cc12 [Compound 58] | 80 nM
CS(=O)(=O)c1ccccc1-c1nccc2cc(C(=O)Nc3ccc(-c4cncs4)cc3)[nH]c12 [Compound 50] | 67 nM
O=C(Nc1ccc(-c2cnco2)cc1)c1cc(C(=O)c2ccccc2N2CCC(c3ccccc3)C2)c[nH]1 (centres unmarked) [Compound 151] | 1560 nM
COc1ccccc1C(=O)c1c[nH]c(C(=O)Nc2cccnc2)c1 [Compound 9] | 10600 nM
CS(=O)(=O)c1ccccc1-c1cccc2[nH]c(C(=O)Nc3ccc(-c4cncs4)cc3)cc12 [Compound 69] | 373 nM
O=C(Nc1ccc(-c2ccncc2)cc1)c1cc(C(=O)c2ccccc2C(F)(F)F)c[nH]1 [Compound 24] | 12 nM

SMILES | IC50
CC(=O)c1ccc(NC(=O)c2cc(C(=O)c3ccccc3C(F)(F)F)c[nH]2)cc1 [Compound 19] | 31 nM
O=C(Nc1ccc(-c2cncs2)cc1)c1cc2c(-c3ccncc3C(F)(F)F)nccc2[nH]1 [Compound 49] | > 50000 nM
O=C(Nc1ccc(-c2cncs2)cc1)c1cc2c(-c3ccccc3C(F)(F)F)nccc2[nH]1 [Compound 41] | 192 nM
O=C(Nc1ccc(-c2cncs2)cc1)c1cc2c(-c3ccccc3OC(F)(F)F)c(F)ccc2[nH]1 [Compound 59] | > 50000 nM
CN(C)c1ncc(-c2ccc(NC(=O)c3cc(C(=O)c4ccccc4C(F)(F)F)c[nH]3)cc2)o1 [Compound 75] | 8.5 nM
O=C(Nc1cccc(F)c1)c1cc(C(=O)c2ccccc2C(F)(F)F)c[nH]1 [Compound 14] | 248 nM
CS(=O)(=O)c1ccccc1-c1nccc2[nH]c(C(=O)Nc3ccc(-c4cnco4)cc3)cc12 [Compound 62] | 280 nM
O=C(Nc1ccc(-c2cnc(N3CC(F)(F)C3)s2)cc1)c1cc(C(=O)c2ccccc2C(F)(F)F)c[nH]1 [Compound 35] | 424 nM
N#Cc1ccc(-c2ccc(NC(=O)c3cc(C(=O)c4ccccc4C(F)(F)F)c[nH]3)cc2)s1 [Compound 31] | 15 nM
COCOc1cc(NC(=O)c2cc(C(=O)c3ccccc3C(F)(F)F)c[nH]2)ccc1-c1cnco1 [Compound 96] | 14.5 nM
O=C(Nc1ccc(-c2cnco2)cc1)c1cc(C(=O)c2ccccc2C2=CCCC2)c[nH]1 [Compound 142] | 25 nM
C[C@H]1CN(c2ccccc2C(=O)c2c[nH]c(C(=O)Nc3ccc(-c4cnco4)cc3)c2)C[C@H](C)O1 [Compound 149] | 41 nM
O=C(Nc1cccnc1)c1cc(C(=O)c2c(Br)ccc(F)c2F)c[nH]1 [Compound 4] | > 50000 nM
CS(=O)(=O)c1ccccc1-c1nccc2[nH]c(C(=O)Nc3ccc(-c4ccccc4)cc3)cc12 [Compound 72] | 36500 nM
O=C(Nc1ccc(OC(F)(F)F)cc1)c1cc(C(=O)c2ccccc2C(F)(F)F)c[nH]1 [Compound 17] | 42 nM
O=C(Nc1ccc(-c2cnco2)cc1)c1cc(C(=O)c2ccccc2N2CCOCC2)c[nH]1 [Compound 138] | 20 nM
CN1CCN(c2ncc(-c3ccc(NC(=O)c4cc(C(=O)c5ccccc5Br)c[nH]4)cc3)o2)CC1 [Compound 80] | 344 nM
O=C(Nc1ccc(-c2cncs2)cc1)c1cc2c(-c3ccccc3OC(F)(F)F)nccc2[nH]1 [Compound 44] | 138 nM
O=C(Nc1ccc2c(c1)OCc1ccccc1-2)c1cc(C(=O)c2ccccc2C(F)(F)F)c[nH]1 [Compound 83] | 98.7 nM
O=C(Nc1ccccc1)c1ccc(NC(=O)c2cc(C(=O)c3ccccc3C(F)(F)F)c[nH]2)cc1 [Compound 111] | 367 nM
O=C(Nc1ccc(-c2cnc(N3CCCC3)s2)cc1)c1cc(C(=O)c2ccccc2C(F)(F)F)c[nH]1 [Compound 36] | 13 nM
O=C(Nc1cccnc1)c1cc(C(=O)c2ccccc2Br)c[nH]1 [Compound 5] | 1780 nM
O=C(Nc1ccc(-c2cnco2)cc1)c1cc(C(=O)c2ccccc2N2CCSCC2)c[nH]1 [Compound 118] | 12 nM

same assay, conditions: read-out: IC50 (Inhibitory Activity against YTHDC1)

SMILES | IC50
C[Si]1(C)CCN(c2ccccc2C(=O)c2c[nH]c(C(=O)Nc3ccc(-c4cnco4)cc3)c2)CC1 [Compound 122] | 83 nM

Source: US20260265222A1, “1H-PYRROLE-2-AMIDE DERIVATIVE, PHARMACEUTICAL COMPOSITION AND METHOD FOR TREATING AND/OR PREVENTING YTHDC1-RELATED DISEASES” (priority 2023, published 2026)
